# ChEMBL document CHEMBL5046278, “Synthesis and Evaluation of Novel Tetrahydronaphthyridine CXCR4 Antagonists with Improved Drug-like Profiles” (J Med Chem, 2022)
# Key:
# [1] = target: T1, Muscarinic acetylcholine receptor M2 (Homo sapiens, UniProt P08172); assay: Inhibition of M2 mAChR receptor (unknown origin)
# T1 sequence (P08172 whole entry): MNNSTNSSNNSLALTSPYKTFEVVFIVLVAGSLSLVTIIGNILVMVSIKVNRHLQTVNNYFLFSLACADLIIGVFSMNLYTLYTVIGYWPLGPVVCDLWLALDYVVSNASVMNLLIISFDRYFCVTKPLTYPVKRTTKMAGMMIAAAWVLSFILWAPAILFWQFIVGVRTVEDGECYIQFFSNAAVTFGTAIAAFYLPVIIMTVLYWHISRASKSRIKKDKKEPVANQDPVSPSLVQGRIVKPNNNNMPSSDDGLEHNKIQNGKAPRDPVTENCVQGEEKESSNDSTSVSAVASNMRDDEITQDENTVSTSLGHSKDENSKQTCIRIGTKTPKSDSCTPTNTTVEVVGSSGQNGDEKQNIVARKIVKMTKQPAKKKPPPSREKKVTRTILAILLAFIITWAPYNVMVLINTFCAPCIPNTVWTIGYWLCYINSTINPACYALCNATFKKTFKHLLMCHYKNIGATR
# [2] = Oral bioavailability in mouse at 30 mg/kg measured at 24 hrs by LC-MS/MS analysis; type: ADME, organism-based; settings: in vivo
# [3] = target: D(2) dopamine receptor (Homo sapiens, UniProt P14416); assay: Inhibition of dopamine D2 receptor (unknown origin)
# [4] = AUC(0 to 8 h)in mouse plasma at 3 mg/kg, po measured at 24 hrs by LC-MS/MS analysis; type: ADME, organism-based; design: route oral, dose 3 mg/kg, time 24 hrs; settings: in vivo
# [5] = Volume of distribution in mouse at 3 mg/kg, measured at 24 hrs by LC-MS analysis; type: ADME, organism-based; settings: in vivo
# [6] = AUC(0 to 8 h) in mouse plasma at 3 mg/kg, iv measured at 24 hrs by LC-MS/MS analysis; type: ADME, organism-based; design: route intravenous, time 24 hrs, dose 3 mg/kg; settings: in vivo
# [7] = Half life in mouse at 3 mg/kg, iv measured after 8 hrs by LC-MS/MS analysis; type: ADME, organism-based; settings: in vivo
# [8] = Oral bioavailability in mouse at 3 mg/kg measured at 24 hrs by LC-MS/MS analysis; type: ADME, organism-based; settings: in vivo
# [9] = target: Mu-type opioid receptor (Homo sapiens, UniProt P35372); assay: Inhibition of mu opioid receptor (unknown origin)
# [10] = target: T2, Alpha-2A adrenergic receptor (Homo sapiens, UniProt P08913); assay: Inhibition of alpha 2A adrenergic receptor (unknown origin)
# T2 sequence (P08913 whole entry): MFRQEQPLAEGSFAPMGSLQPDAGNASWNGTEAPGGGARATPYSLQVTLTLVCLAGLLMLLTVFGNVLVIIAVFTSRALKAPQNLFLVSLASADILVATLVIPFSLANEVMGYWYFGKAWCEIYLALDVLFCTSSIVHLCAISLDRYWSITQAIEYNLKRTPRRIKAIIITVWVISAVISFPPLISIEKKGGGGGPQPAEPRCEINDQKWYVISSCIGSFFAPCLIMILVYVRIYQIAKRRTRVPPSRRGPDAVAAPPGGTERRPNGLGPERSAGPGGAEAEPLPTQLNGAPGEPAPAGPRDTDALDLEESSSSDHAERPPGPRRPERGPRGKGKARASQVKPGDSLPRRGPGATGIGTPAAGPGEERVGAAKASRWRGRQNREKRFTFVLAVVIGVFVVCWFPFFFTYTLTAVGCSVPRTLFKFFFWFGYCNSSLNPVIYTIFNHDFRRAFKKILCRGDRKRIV
# [11] = Drug concentration in mouse plasma at 30 mg/kg, po measured at 12 hrs by LC-MS analysis; type: ADME, organism-based
# [12] = AUC(0 to 8 h) in mouse plasma at 30 mg/kg, po measured at 24 hrs by LC-MS/MS analysis; type: ADME, organism-based; design: route oral, time 24 hrs, dose 30 mg/kg; settings: in vivo
# [13] = target: Neuronal acetylcholine receptor subunit alpha-7 (Homo sapiens, UniProt P36544); assay: Inhibition of alpha7 nicotinic acetylcholine receptor (unknown origin)
# [14] = target: Kappa-type opioid receptor (Homo sapiens, UniProt P41145); assay: Inhibition of kappa opioid receptor (unknown origin)
# [15] = target: Voltage-gated inwardly rectifying potassium channel KCNH2 (Homo sapiens, UniProt Q12809); assay: Inhibition of human ERG by [3H]]Astemizole binding assay; type: toxicity
# [16] = Metabolic stability in rat liver microsomes assessed compound remaining measured after 10 mins in presence of NADPH; type: ADME, Microsome; settings: read-out: Stability
# [17] = Permeability of compound at pH 5.5 incubated for 4 hrs by PAMPA assay; type: ADME; settings: read-out: permeability
# [18] = Antagonist activity at mAChR (unknown origin) expressed in CCRF-CEM cells assessed as inhibition of calcium release by calcium flux assay; type: cell-based; settings: Homo sapiens
# [19] = test system: Human immunodeficiency virus 1; assay: Antiviral activity against HIV-1 Z1800M E4.02 (R5) pseudovirus infected in human TZM-blcells assessed as reduction in viral infectivity measured after 48 hrs of postinfection by luminescence assay; type: functional, organism-based; settings: Human immunodeficiency virus 1, Z1800M E4.02 (R5), TZM-bl
# [20] = target: T3, Alpha-2C adrenergic receptor (Homo sapiens, UniProt P18825); assay: Inhibition of alpha 2C adrenergic receptor (unknown origin)
# T3 sequence (P18825 whole entry): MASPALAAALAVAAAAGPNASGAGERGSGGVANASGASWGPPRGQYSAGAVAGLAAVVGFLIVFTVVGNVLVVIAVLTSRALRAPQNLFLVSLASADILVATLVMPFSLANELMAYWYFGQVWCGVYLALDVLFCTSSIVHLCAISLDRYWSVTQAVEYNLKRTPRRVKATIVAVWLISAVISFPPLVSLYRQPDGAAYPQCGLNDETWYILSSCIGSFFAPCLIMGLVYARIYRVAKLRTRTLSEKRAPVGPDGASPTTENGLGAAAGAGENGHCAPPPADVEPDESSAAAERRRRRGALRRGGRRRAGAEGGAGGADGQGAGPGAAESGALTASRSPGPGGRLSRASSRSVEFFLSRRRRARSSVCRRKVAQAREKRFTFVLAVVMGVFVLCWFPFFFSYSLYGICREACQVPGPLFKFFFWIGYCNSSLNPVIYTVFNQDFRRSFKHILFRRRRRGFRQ
# [21] = Metabolic stability in mouse liver microsomes assessed compound remaining measured after 10 mins in presence of NADPH; type: ADME, Microsome; settings: read-out: Stability
# [22] = Metabolic stability in human liver microsomes assessed compound remaining measured after 10 mins in presence of NADPH; type: ADME, Microsome; settings: read-out: Stability
# [23] = Permeability of compound at pH 7.4 incubated for 4 hrs by PAMPA assay; type: ADME; settings: read-out: permeability
# [24] = Cytotoxicity against human TZM-bl cells assessed as reduction in cell viability incubated for 4 hrs by […] assay; type: toxicity, cell-based; settings: read-out: TC50
# [25] = test system: Human immunodeficiency virus 1; assay: Antiviral activity against HIV-1 NL4-3(X4) pseudovirus infected in human TZM-bl cells assessed as reduction in viral infectivity measured after 48 hrs of postinfection by luminescence assay; type: functional, organism-based; settings: Human immunodeficiency virus 1, NL4-3(X4)
# [26] = Antagonist activity at human CXCR4 receptor expressed in CCRF-CEM cells assessed as inhibition of CXCL12-induced calcium release by calcium flux assay; type: cell-based
# [27] = target: Cytochrome P450 2D6 (Homo sapiens, UniProt P10635); assay: Inhibition of recombinant human CYP2D6 using AMMC as substrate preincubated for 30 mins followed by substrate addition measured after 45 mins by fluorescence based assay; type: ADME
# Chain of Cytochrome P450 2D6 (P10635 whole entry): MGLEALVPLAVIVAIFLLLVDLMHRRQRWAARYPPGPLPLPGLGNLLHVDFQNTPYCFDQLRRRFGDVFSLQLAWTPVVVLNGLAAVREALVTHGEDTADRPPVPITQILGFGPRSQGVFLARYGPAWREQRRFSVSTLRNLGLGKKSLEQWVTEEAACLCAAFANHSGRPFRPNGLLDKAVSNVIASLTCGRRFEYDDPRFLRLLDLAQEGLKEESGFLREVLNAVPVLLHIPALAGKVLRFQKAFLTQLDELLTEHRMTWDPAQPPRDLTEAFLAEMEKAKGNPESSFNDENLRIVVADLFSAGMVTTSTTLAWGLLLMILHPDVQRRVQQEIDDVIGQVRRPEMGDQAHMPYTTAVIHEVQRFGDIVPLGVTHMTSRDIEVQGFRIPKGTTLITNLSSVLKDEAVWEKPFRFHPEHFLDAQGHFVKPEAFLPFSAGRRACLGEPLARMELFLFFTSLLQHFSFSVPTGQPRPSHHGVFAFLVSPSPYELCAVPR
# Chain of D(2) dopamine receptor (P14416 whole entry): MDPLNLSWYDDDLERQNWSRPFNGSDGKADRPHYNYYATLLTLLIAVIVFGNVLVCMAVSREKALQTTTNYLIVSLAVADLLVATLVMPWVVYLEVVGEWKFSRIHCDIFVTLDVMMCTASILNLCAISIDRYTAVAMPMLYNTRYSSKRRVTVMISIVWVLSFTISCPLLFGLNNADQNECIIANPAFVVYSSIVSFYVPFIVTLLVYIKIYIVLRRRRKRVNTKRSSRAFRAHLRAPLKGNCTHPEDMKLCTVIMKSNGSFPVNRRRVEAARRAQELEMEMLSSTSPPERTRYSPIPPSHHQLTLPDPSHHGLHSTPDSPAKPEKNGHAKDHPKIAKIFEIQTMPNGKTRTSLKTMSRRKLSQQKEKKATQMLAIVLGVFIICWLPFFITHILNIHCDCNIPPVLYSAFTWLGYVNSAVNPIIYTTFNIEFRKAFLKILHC
# Chain of Neuronal acetylcholine receptor subunit alpha-7 (P36544 whole entry): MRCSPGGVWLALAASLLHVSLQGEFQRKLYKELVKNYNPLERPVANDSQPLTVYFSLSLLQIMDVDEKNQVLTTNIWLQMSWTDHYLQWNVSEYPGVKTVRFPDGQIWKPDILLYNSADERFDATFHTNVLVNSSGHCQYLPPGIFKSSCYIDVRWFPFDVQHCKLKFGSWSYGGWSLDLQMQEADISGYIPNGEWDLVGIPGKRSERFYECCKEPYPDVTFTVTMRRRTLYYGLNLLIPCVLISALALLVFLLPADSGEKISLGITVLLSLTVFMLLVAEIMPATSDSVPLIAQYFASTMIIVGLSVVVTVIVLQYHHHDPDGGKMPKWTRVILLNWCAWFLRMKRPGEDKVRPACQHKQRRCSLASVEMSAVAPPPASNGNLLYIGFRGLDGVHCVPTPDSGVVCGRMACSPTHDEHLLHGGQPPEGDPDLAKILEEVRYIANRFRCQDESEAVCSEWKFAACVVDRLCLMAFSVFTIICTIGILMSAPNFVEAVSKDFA
# Chain of Kappa-type opioid receptor (P41145 whole entry): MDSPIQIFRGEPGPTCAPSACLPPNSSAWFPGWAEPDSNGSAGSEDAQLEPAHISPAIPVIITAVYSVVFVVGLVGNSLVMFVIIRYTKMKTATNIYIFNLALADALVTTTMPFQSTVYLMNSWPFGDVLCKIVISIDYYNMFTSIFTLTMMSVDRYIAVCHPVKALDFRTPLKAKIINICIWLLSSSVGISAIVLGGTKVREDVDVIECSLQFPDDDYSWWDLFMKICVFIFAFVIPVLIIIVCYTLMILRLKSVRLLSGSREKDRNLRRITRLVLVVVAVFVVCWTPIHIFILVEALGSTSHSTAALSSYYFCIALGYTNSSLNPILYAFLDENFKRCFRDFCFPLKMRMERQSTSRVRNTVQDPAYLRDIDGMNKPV
# Chain of Mu-type opioid receptor (P35372 whole entry): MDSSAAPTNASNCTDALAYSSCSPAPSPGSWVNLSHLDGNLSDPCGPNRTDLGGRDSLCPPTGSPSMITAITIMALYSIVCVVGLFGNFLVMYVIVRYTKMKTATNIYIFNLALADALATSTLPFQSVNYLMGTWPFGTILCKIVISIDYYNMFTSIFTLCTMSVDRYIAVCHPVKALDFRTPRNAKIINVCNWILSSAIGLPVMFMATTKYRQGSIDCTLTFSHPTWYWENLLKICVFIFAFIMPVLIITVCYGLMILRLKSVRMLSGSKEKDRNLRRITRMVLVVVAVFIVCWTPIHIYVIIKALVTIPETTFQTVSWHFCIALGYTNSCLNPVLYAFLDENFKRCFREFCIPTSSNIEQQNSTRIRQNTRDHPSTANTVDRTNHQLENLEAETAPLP
# Chain of Voltage-gated inwardly rectifying potassium channel KCNH2 (Q12809 whole entry): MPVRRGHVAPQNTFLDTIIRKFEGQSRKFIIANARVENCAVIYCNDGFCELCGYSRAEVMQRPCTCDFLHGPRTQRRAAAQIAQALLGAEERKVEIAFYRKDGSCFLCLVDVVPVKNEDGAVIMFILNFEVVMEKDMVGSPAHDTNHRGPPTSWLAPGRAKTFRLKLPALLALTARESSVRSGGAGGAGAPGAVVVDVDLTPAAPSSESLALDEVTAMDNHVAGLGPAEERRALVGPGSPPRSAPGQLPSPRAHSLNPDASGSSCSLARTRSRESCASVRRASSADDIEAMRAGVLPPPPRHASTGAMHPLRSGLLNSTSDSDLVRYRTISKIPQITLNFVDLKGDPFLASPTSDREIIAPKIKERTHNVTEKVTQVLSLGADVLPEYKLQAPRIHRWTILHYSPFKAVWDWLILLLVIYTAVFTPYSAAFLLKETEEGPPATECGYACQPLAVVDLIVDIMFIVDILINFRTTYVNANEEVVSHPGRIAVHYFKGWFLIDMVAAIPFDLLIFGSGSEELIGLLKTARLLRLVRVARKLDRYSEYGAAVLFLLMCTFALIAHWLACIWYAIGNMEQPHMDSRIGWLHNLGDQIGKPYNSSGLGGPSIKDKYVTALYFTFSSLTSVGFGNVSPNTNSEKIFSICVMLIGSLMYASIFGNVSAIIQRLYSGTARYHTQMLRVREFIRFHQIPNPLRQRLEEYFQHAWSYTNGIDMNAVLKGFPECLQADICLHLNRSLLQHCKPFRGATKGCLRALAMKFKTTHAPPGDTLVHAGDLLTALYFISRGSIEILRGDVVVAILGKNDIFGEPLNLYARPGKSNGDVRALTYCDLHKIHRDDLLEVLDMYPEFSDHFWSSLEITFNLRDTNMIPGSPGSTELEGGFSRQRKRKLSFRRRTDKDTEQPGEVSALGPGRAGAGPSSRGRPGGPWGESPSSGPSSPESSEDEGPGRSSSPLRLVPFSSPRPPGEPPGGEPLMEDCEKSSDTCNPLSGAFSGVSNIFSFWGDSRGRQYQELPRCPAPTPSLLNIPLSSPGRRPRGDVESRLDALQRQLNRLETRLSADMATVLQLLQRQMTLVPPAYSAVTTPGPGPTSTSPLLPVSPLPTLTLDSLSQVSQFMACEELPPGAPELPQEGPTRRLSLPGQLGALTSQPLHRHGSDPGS
Structure (SMILES),IC50 [1] [µM],IC50 [3] [µM],IC50 [9] [µM],IC50 [10] [µM],IC50 [13] [µM],IC50 [14] [µM],IC50 [15] [µM],remaining at 10 min [16] [%],Papp at 4 h [17] [×10⁻⁶ cm/s],IC50 [18] [µM],IC50 [19] [µM],IC50 [20] [µM],remaining at 10 min [21] [%],remaining at 10 min [22] [%],Papp at 4 h [23] [×10⁻⁶ cm/s],CC50 at 4 h [24] [µM],IC50 [25] [µM],IC50 [26] [µM],IC50 [27] [µM],other results
NCCCCN(Cc1nc2ccccc2[nH]1)[C@H]1CCCc2cccnc21 [MAVORIXAFOR],7.5,4.1,12,> 30,> 30,> 30,–,–,–,–,–,–,–,–,–,–,–,–,–,bioavailability [2]: 2.42%; AUC [4]: 35.1 h/ng/mL; Vd [5]: 32.2 L/kg; AUC [6]: 415 h/ng/mL; half-life [7]: 3.09 h; bioavailability [8]: 2.54%; concentration at 12 h [11]: 2.2 ng/mL; AUC [12]: 101 h/ng/mL
c1cnc2c(c1)CN[C@@H](CN(CCCCNC1COC1)[C@H]1CCCc3cccnc31)C2,> 17,> 30,21,24,> 30,10.1,11,27,0.7,> 33,> 10,8.8,41,97,30,> 10,0.02,0.16,> 20,–
c1cnc2c(c1)CN[C@@H](CN(CCCCN1CCOCC1)[C@H]1CCCc3cccnc31)C2,> 30,> 30,> 30,0.62,11,> 30,11,39,1.2,> 33,> 10,20,20,100,83,> 10,> 0.03,0.27,> 20,–
CN(CCCCN(C[C@H]1Cc2ncccc2CN1)[C@H]1CCCc2cccnc21)C1CCOCC1,> 30,> 30,> 30,28,> 30,8.9,> 50,64,1.5,> 33,> 10,8.4,51,100,49,> 10,0.006,0.11,> 20,–
